The values below come from patent US7468186B2, “Polyomavirus cellular epitopes and uses therefor” (priority 2005, dated 2008).

Series [1] deals with Jurkat A2.1 cells pulsed with peptide.
For series [2], the system named is splenocytes (CD8+ T cells). Format: cell-based, HHD-II transgenic mice.
Series [3] has as its system CD8+ T lymphocytes of PBMC. The series can be described thus: In vitro stimulation of human PBMC with peptide and rIL-2, then tetramer reagent labeling and flow analysis.
The target in series [4] is T1, HLA-A*02 (Homo sapiens, UniProt P04439, D140Y/D185E/D98H/E176V/E277Q/G131W/G231S/I119V/I121R/I166T/I218V/L300P/L318F/N151K/N90K/P208A/P217A/Q86G/Q94H/R138H/R169H/T345S).
T1 construct: Levels of surface HLA-A2 were measured by staining peptide-pulsed T2 cells with a fluorescent-labeled antibody to HLA-A2; endogenous in cells; host or cells: T2 cells (TAP-deficient)
Nature of the series: T2 stabilization/HLA-A*02 binding assay (flow cytometry of surface HLA-A2 on peptide-pulsed T2 cells). The note with it: peptide-pulsed TAP-deficient T2 cells, FIG. 1.

The mark [5] stands for this setting: IVS with JCVp100, healthy HLA-A2 donors.
The mark [6] stands for this setting: healthy HLA-A2 volunteers, summary of Table IV.
Setting [7] is: kidney transplant patient KTx#02 PBMC, two weeks with peptide and IL-2, percentage of CD8+ lymphocytes, FIG. 12.
The mark [8] stands for this setting: IVS with BKVp44, healthy HLA-A2 donors.

“And” between values parts separate entries of the source, which are not always exact repeats. Identical values can stand only once. Ends that are not written are not given here.

On to LLMWEAVTV [BK108], for which, in series [1], the “result of cytotoxicity and ICC assays” value is listed as “positive results”.

In the case of ILMWEAVTL [JC100], the “recognition by transgenic murine CTL expanded with BK108” value in series [1] is on record as “recognized”. In addition, in series [2], the “cells producing IFN-γ in response to peptide” value is 17.29% and 22.2%. Also, in series [3] (IVS with JCVp100, double tetramer labeling), the “BOTH (tetBKVp108 and tetJCVp100)” value was 0 (6×) and 0.26 and 5.17 and 0.04 and 4.3 and 0.9. Moreover, in series [3] (setting [5]), the “% tetBKVp108” value was 0.04% (2×) and 0.05% and 0% (9×) and 0.16% and 0.06% and 0.48% and 4.59% and 0.13% and 5.1% and 0.03% and 0.8%; the “% tetJCVp100” value is 0.02% and 0% (11×) and 0.28% and 0.59% and 3.5% and 0.09% and 1.36% and 5.1% and 0.08% and 1.05%. For the same sequence, the “individuals positive for staining with the BK108 tetramer reagent after in vitro stimulation” value in series [3] (setting [6]) is recorded as 5 of 20. Moreover, the “tetramer reagent binding cells that bound both the BKV and JVC tetramer reagents” value in series [3] (kidney transplant patient KTx#02 PBMC after in vitro stimulation, FIG. 13) was 63%. Besides, in series [3] (setting [7]), the “cells binding the BKV tetramer reagent after in vitro stimulation” value was found to be 4.4% and the “cells binding the JVC tetramer reagent after in vitro stimulation” value is listed as 3.7%.

In the case of ILKEPVNGV [control HIV peptide], in series [2], the “cells producing IFN-γ in response to peptide” value was 1.94% and 3.2%; the “proportion of cells responding with IFN-γ production” value turned out to be 0.35%.

Take SITEVECFL [JC36]: in series [1], the “recognition by transgenic murine CTL expanded with BK44” value is “recognized”.

Consider “AITEVECFL (Polyomavirus hominis 1) [BK44]”, for which the “recognition by transgenic murine CTL expanded with BK44” value in series [1] was “recognized”. Moreover, in series [2], the “IFN-γ secretion by CD8+ cells on peptide stimulation” value is “induced the secretion of IFN-γ by CD8^+ cells”. For the same sequence, the “BOTH (tetBKVp44 and tetJCVp36)” value in series [3] (IVS with BKVp44, double tetramer labeling) is 1.79 and 0.02 and 5.7 and 0 (8×) and 0.17 and 13.2 and 2.63 and 3.38 and 0.1 and 6.1. Further, in series [3] (setting [8]), the “% tetBKVp44” value is 1.89% and 0% (5×) and 6.2% and 0.33% and 0.13% and 14.7% and 3.14% and 3.78% and 0.1% and 0.07% and 6.7% and 0.01% and 0.63%; the “% tetJCVp36” value was 1.72% and 0.01% and 6.6% and 0% (4×) and 0.7% and 0.08% and 0.04% and 15% and 3.07% and 3.65% and 0.1% and 0.07% and 6.2% and 0.05%. Further, in series [3] (setting [6]), the “individuals with cells positively stained by the BK44 tetramer reagent after in vitro stimulation” value is reported as 8 of 17 and the “individuals with cells positively stained by the JC36 tetramer reagent after in vitro stimulation” value was 8 of 17.

Regarding NLLMWEAVTV [BK107], the “result of cytotoxicity and ICC assays” value in series [1] is recorded as “positive results”.

Consider “LLIKGGVEV (Polyomavirus hominis 1) [BK27b]”, for which, in series [4], the “HLA-A2 binding (increase in relative fluorescence intensity on T2 cells)” value is listed as “highest binding function”.
